Measurements published in article PMC7760004, “Hydrocarbon-Stapled Peptide Based-Nanoparticles for siRNA Delivery” (Nanomaterials, 2020).
Peptide text beside a SMILES is read from it. * marks the point of attachment. FITC = O=C1OC2(c3ccc(O)cc3Oc3cc(O)ccc32)c2ccc(NC(=S)*)cc21; Ahx = NCCCCCC(=O)O

Assays:
[1] = Circular dichroism, determination of helical content; type: physicochemical; conditions: water/TFE (95/5)
Method: Circular dichroism experiments were carried out using a Jasco J815 spectropolarimeter. Spectra (Jasco, Easton, MD, USA) were typically recorded with 100 μM of peptides dissolved in a water/TFE mixture (95/5), pH 7, using a 1 mm pathlength CD cuvette at 20 °C, over a wavelength range of 190–260 nm. The peptide concentrations were normalized measuring the OD at 490 nm considering a molar coefficient extinction (ε490) for the FITC of 76,900 cm^−1 M^−1. Continuous scanning mode was used, with a response of 1.0 s with 0.1 nm steps and a bandwidth of 2 nm. The signal to noise ratio was improved by acquiring each spectrum over an average of two scans. Baseline was corrected by subtracting the background from the sample spectrum. Alpha helical content was determined using the following equation: % Helix = ([θ])obs × 100)/(−39,500 × (1 − 2.57/n), where ([θ])obs is the mean residue ellipticity at 222 nm and n the number of peptide bonds.

MDA-MB-231 cells = assay: Cellular uptake of FITC-stapled peptides (plate-reader fluorescence); conditions: MDA-MB-231, 5 µM FITC-peptide, 4 h
Method: MDA-MB-231 cells were seeded in black 96-well plate in 200 μL of their corresponding medium. After 24 h of cell growth, cells were treated with 5 µM concentration of FITC-stapled peptides for 4 h. Total fluorescence (TF) was measured using CLARIOstar® High Performance Monochromator Multimode Microplate Reader (BMG Labtech, Ortenberg, Germany) at excitation/emission of 483-14/530-30 nm. Cells were washed three times with PBS and remaining fluorescence (RF) was measured using the same conditions. The percentage of uptake values were presented as relative mean fluorescence and normalized with respect to Penetratin used as a standard control and set at 100%.

SMILES: CC[C@H](C)[C@H](NC(=O)[C@H](C)NC(=O)[C@H](CCCNC(=N)N)NC(=O)[C@H](CCCNC(=N)N)NC(=O)CCCCCNC(=S)Nc1ccc2c(c1)C(=O)OC21c2ccc(O)cc2Oc2cc(O)ccc21)C(=O)N[C@H](C(=O)N[C@H](C(=O)N[C@@H](C)C(=O)N[C@@H](CCCNC(=N)N)C(=O)N[C@@H](CCCNC(=N)N)C(=O)N[C@@H](CS)C(N)=O)[C@@H](C)CC)[C@@H](C)CC [JMV6579] ({FITC-Ahx}-RRAIIIARRC-NH2)
- α Helix (%) ([1]; CD, 100 μM peptide, pH 7, 20 °C, from mean residue ellipticity at 222 nm): 5%
- CD profile (folding) ([1]; far-UV CD, 20 °C): remained partially unfolded
- ability to enter cells (uptake, in words) (MDA-MB-231 cells): almost not able to enter cells
